Reference: patent US20080194456A1, “Compositions And Methods Related To An Intestinal Inflammation And Uses Therefor” (The General Hospital Corporation, priority 2004, published 2008)

Tests used:
[1] = test system: grim-19 mRNA in Caco-2 cells; test: Real time RT-PCR of grim-19 mRNA in Caco-2 cells; assay type: cell-based, human; conditions: for grim-19 mRNA levels: Caco-2 cells harboring plasmid encoding siRNA
Experimental: Total RNA of IEC lines were extracted using Trizol (INVITROGEN) according to the manufacturer's instructions. For reverse transcription, 2 μg of total RNA was transcribed with RT PCR reagents provided in the SUPERSCRIPT FIRST-STRAND SYNTHESIS SYSTEM (INVITROGEN). Real time RT-PCR was performed in an ABI Prism 7000 Sequence Detector using SYBR Green JumpStart™ detection system. Briefly, 50 ng of the reversed transcribed cDNA were used for each PCR reaction with 200 nM of forward and reverse primers. Primers used for PCR had the following sequences: Forward 5-[…]-3, Reverse 5-[…]-3 (GRIM-19, 194 bp); Forward 5-[…]-3, Feverse 5-[…]-3 (glyceraldehyde-3-phosphate dehydrogenase [GAPDH], 440 bp). The following PCR program was used: 50° C. for 2 minutes, then 95° C. for 10 minutes followed by 40 cycles of 95° C. for 15 seconds, 60° C. for 15 seconds and 72° C. for 15 seconds. The threshold cycle (CT) values were obtained for the reactions reflecting quantity of the template in the sample. GRIM-19 Delta CT (ΔCT) was calculated by subtracting the GAPDH CT value from the GRIM-19 CT value and thus, represented the relative quantity of the target molecule after normalizing with the internal standard GAPDH. The GRIM-19 ΔCT values of Caco-2 cells infected with Salmonella, or transfected with pcDNA4/HisMAX-GRIM 19 were expressed as the percentage of GRIM-19 ΔCT values of control Caco-2 cells.

[2] = test system: NOD2 mediated NF-κB activation; test: NF-κB activation assay (luciferase reporter) in HEK293 cells; assay type: cell-based, human; conditions: HEK293 transfected with NOD2, 1 μg MDP-LD stimulation; relative to HEK293 transfected only with NOD2 or with pSUPER control vector
Experimental: (§1) FIGS. 19A and 19B are graphs showing that GRIM-19 acts downstream of NOD2 and is required from NF-κB activation. […] NF-κB activity was determined in the absence or presence of 1 μg of MDP-LD. grim-19 mRNA level was measured by RT-PCR using specific primers. […] After a two hour period of infection with S. typhimurium at MOI=10, invasive bacteria were quantified as described above. * p<0.05
HEK293 cells were transfected overnight with 1 ng of NOD2, 10 ng of grim-19 siRNA plus 1 ng of pIV luciferase reporter plasmid and renilla plasmid. At the same time, 1 μg of MDP-LD (Sigma) was added. After twenty-four hours, luciferase activity was measured using the Dual-Luciferase Reporter Assay System (Promega, Madison, Wis.) according to the manufacturer's instructions and normalized relative to renilla activity.

[3] = test system: grim-19 mRNA in HEK293 cells; test: RT-PCR of grim-19 mRNA in HEK293 cells; assay type: cell-based, human; conditions: HEK293 cells transfected with NOD2 and siRNA
Experimental: as §1
Total RNA of IEC lines were extracted using Trizol (INVITROGEN) according to the manufacturer's instructions. For reverse transcription, 2 μg of total RNA was transcribed with RT PCR reagents provided in the SUPERSCRIPT FIRST-STRAND SYNTHESIS SYSTEM (INVITROGEN). Real time RT-PCR was performed in an ABI Prism 7000 Sequence Detector using SYBR Green JumpStart™ detection system. […] The threshold cycle (CT) values were obtained for the reactions reflecting quantity of the template in the sample. GRIM-19 Delta CT (ΔCT) was calculated by subtracting the GAPDH CT value from the GRIM-19 CT value and thus, represented the relative quantity of the target molecule after normalizing with the internal standard GAPDH. The GRIM-19 ΔCT values of Caco-2 cells infected with Salmonella, or transfected with pcDNA4/HisMAX-GRIM 19 were expressed as the percentage of GRIM-19 ΔCT values of control Caco-2 cells.

S. typhimurium [4] = conditions: for percentage of intracellular bacteria: transfected Caco-2 cells, two hour infection at MOI=10, one hour gentamicin, relative to untransfected Caco-2 cells = 100%, mean ±SEM
[5] = test system: NOD1 mRNA expression in SW480 cells; test: Northern blot analysis of NOD1 mRNA expression in SW480 cells treated with cytokines; assay type: cell-based, human; conditions: 10 ng/ml cytokine for six hours, Northern blot relative to GAPDH
Experimental: FIGS. 3A, B, C, D, E, and F are photographs showing Northern blots. […] Cells were treated with IFNγ for six hours. […] Cells were treated with 100 ng/ml IFNγ.
Regulation of NOD1 expression had not been described previously. […] The effect of IFNγ on NOD1 mRNA expression is time and concentration dependent manner as assessed by Northern blot analysis (FIG. 3C-3E).

[6] = test system: NOD2 mRNA expression in SW480 cells; test: Northern blot analysis of NOD2 mRNA expression in SW480 cells; assay type: cell-based, human
Experimental: FIGS. 8A-8D are photographs of Northern blots showing the effect of cytokines on Nod2 mRNA expression in SW480 cells. FIG. 8A is a Northern blot analysis of Nod2 mRNA expression in SW480 cells treated with 10 ng/ml of IFNγ, TNFα, IL-1β, IL-4 and TGFβ for six hours. As a positive control for CARD15/NOD2, human PBMC was used. […] In each of FIGS. 8A-8C, expression of Nod2 is shown relative to GAPDH expression.
Regulation of NOD2 expression had not been previously characterized. In order to better understand how NOD2 expression might vary in the context of mucosal inflammation, the effects of cytokines on epithelial NOD2 expression were studied using the SW480 cell line.

[7] = test system: NOD2 protein in SW480 cells; test: Western blot of NOD2 protein in SW480 cells; assay type: cell-based, human; conditions: TNFα stimulation, time-dependent
Source text: FIGS. 9A-9D depict NOD2 protein and its expression in SW480 cells. FIG. 9A is a schematic diagram showing the location of polypeptide sequences of NOD2 for immunization. FIGS. 9B, 9C, and 9D are photographs of Western blots. […] Untransfected COS7 cells were used as a negative control. […] Transiently transfected COS7 cells were immunoprecipitated with affinity purified (a.p.) anti-NOD2 antiserum (HM2559 a.p.), then immunoblotted with affinity purified biotinylated anti-NOD2 antiserum (b-HM2563 a.p.). […] As a positive control for NOD2 protein, lysates of COS7 cells transfected with pCMV FLAG-NOD2 was used.
Previous reported efforts had not been successful in detecting active NOD2 protein in vitro or in vivo. To detect the expression of active CARD15/NOD2 protein, anti-NOD2 sera (FIG. 9A) were generated. […] Increased production of TNFα has been noted in the mucosa of patients with Crohn's disease.

S. typhimurium [8] = test: Bacterial invasion assay in HEK293 cells; assay type: cell-based, Salmonella enterica serovar Typhimurium; conditions: MDP-LD stimulated, two hour infection at MOI=10, compared to untransfected HEK293
Experimental: as §1
Invasion assays were performed with Salmonella enterica serovar Typhimurium or Escherichia coli TOP10 (Invitrogen). Cell monolayers were seeded in 24-well tissue culture plate with 10^5 cells/well and incubated for 20 hours. Monolayers were then infected in 1 ml of cell culture medium without antibiotic and with heat-inactivated FCS at a multiplicity of infection (MOI) of 10 bacteria per epithelial cell. After a two hour incubation period at 37° C., the monolayers were washed two times with PBS. Fresh cell culture medium containing 100 μg/ml of gentamicin (Sigma) was then added for one hour to kill any extracellular bacteria. The epithelial cells were then lysed with 1% Triton X-100 in deionized water. Samples of cell lysates were diluted and plated onto Luria-Bertani agar plates to determine the number of colony forming units (cfu), which corresponds to the number of intracellular bacteria.

Caco-2 cells = Caco-2 cells transfected (overexpression), adenylate kinase release
[9] = test system: NOD1 protein in SW480 cells; test: Immunoprecipitation / Western blot of NOD1 protein in SW480 cells; assay type: cell-based, human; conditions: 100 ng/ml IFNγ, 6-48 hours, immunoprecipitation and immunoblot
Source text: FIGS. 4A and 4B are photographs of Western blots. […] Anti-HA monoclonal antibody and biotinylated anti-CARD4/NOD1 antiserum (HM3847) detected NOD1 protein in COS7 cells transiently transfected with pCl CARD4-HA. […] Lysates from COS7 cells transiently transfected with pCl CARD4-HA were used as positive control.
To investigate the expression of NOD1 protein, anti-NOD1 sera were generated. The specificity and the sensitivity were confirmed using lysates from COS7 cells transiently transfected with the HA tagged CARD4 expression plasmid, pCl CARD4-HA (FIG. 4A). Consistent with the regulation of mRNA expression, NOD1 protein was also augmented in SW480 cells by IFNγ stimulation (FIG. 4B).

human NOD1 promoter = test: NOD1 promoter luciferase reporter assay in SW480 cells; assay type: cell-based; conditions: SW480 cells transfected with pGL-2128, 100 ng/ml IFNγ for sixteen hours
Experimental: FIGS. 5A-5D are panels showing that IFNγ activated the human NOD1 promoter. FIG. 5A is a schematic diagram depicting the CARD4/NOD1 gene. Three IRF-1 binding motifs (IRF-1A, IRF-1B, and IRF-1C) are indicated as black boxes (▪). FIG. 5B is a schematic diagram depicting pGL Nod 1-luciferase deletion mutants. FIGS. 5C and 5D are graphs showing luciferase activity in SW480 cells were transiently transfected with 500 ng/well of the indicated expression plasmid. Ten hours after transfection, cells were cultured for a further sixteen hours with 100 ng/ml of IFNγ and then luciferase activity was measured. Black bars indicate the presence of IFNγ. White bars indicate the control conditions.
To identify the transcriptional regulation of NOD1, a series of luciferase reporter vectors was constructed, containing up to 2,128 base pairs corresponding to the DNA sequence upstream of base 1 and extending 21 base pairs into the first exon of NOD1 (FIGS. 5A and 5B). Luciferase activity in SW480 cells transfected with a vector containing the entire 2,128 base pairs upstream DNA (pGL-2128) was 125±16 fold higher than that obtained with the empty pGL3 basic vector.

grim-19 control siRNA: grim-19 control siRNA (sequence 2, atcgaggacttcgaggctc), which did not affect grim-19 mRNA (guide ATCGAGGACTTCGAGGCTC; chemistry not given here) [reference compound]
grim-19 mRNA levels [1]: did not affect | NF-κB activation [2]: no significant effect | grim-19 mRNA level [3]: did not knockdown | percentage of intracellular bacteria (S. typhimurium [4]): not observed

TGFβ
NOD1 mRNA expression [5]: did not affect

TNFα
NOD2 mRNA expression ([6]; SW480 cells, TNFα, concentration and time-dependent): up-regulated | NOD2 protein [7]: upregulated

IFN-α
grim-19 mRNA expression ([1]; Caco-2 cells stimulated with RA, IFN-α or both, real time RT-PCR): did not show increased GRIM-19 expression | percentage of intracellular bacteria / invasive ability of S. typhimurium (S. typhimurium [4]; Caco-2 cells stimulated with RA, IFN-α or both, two hour incubation): remained the same

IL-β: cytokine as printed in b202; figure legend b47 names IL-1β
NOD1 mRNA expression [5]: did not affect

grim-19 siRNA-1: siRNA expressed from pSUPER vector, 19-residue sequence 1-gtgtgggatactgcgagta specific to human grim-19 cDNA (guide GTGTGGGATACTGCGAGTA; expressed from pSUPER vector)
grim-19 mRNA levels [1]: significantly decreased | NF-κB activation [2]: 50% | grim-19 mRNA level [3]: significantly decreased | invasive ability of S. typhimurium (S. typhimurium [8]): reversed | invasive ability of S. typhimurium in stimulated Caco-2 cells (S. typhimurium [4]; Caco-2 cells stimulated with RA and IFN-α, compared with non-stimulated cells): restored | percentage of intracellular bacteria (S. typhimurium [4]): 162.0%±43.8%

NOD2: NOD2 protein expressed from Flag-tagged mammalian expression vector pCMVFlag-NOD2
invasive ability of S. typhimurium (S. typhimurium [8]): decreased | cell death (Caco-2 cells): did not induce cell death

C[C@@H]1C[C@@H]([C@H](O)CC2CC(=O)NC(=O)C2)C(=O)[C@@H](C)C1 [Cycloheximide]
second peak of NOD2 mRNA expression (at twenty-four hours) ([6]; SW480 cells stimulated with 10 ng/ml TNFα): inhibited

B1: TNFβ: cytokine as printed in b202; figure legend b47 names TNFα (protein, UniProt P01374 35-205, looked up)
Lymphotoxin-alpha: LPGVGLTPSAAQTARQHPKMHLAHSTLKPAAHLIGDPSKQNSLLWRANTDRAFLQDGFSLSNNSLLVPTSGIYFVYSQVVFSGKAYSPKATSSPLYLAHEVQLFSSQYPFHVPLLSSQKMVYPGLQEPWLHSMYHGAAFQLTQGDQLSTHTDGIPHLVLSPSTVFFGAFAL
NOD1 mRNA expression [5]: did not affect

B2: IFNγ: cytokine interferon gamma added to SW480 cells (protein, UniProt P01579 24-161, looked up)
Interferon gamma: QDPYVKEAENLKKYFNAGHSDVADNGTLFLGILKNWKEESDRKIMQSQIVSFYFKLFKNFKDDQSIQKSVETIKEDMNVKFFNSNKKKRDDFEKLTNYSVTDLNVQRKAIHELIQVMAELSPAAKTGKRKRSQMLFRG
NOD1 mRNA expression [5]: augmented | NOD1 protein [9]: augmented | increase of luciferase activity (human NOD1 promoter): 80%

B3: IL-4: cytokine added to SW480 cells (protein, UniProt P05112 25-153, looked up)
Interleukin-4: HKCDITLQEIIKTLNSLTEQKTLCTELTVTDIFAASKNTTEKETFCRAATVLRQFYSHHEKDTRCLGATAQQFHRHKQLIRFLKRLDRNLWGLAGLNSCPVKEANQSTLENFLERLKTIMREKYSKCSS
NOD1 mRNA expression [5]: did not affect
